Measured values from patent US10188704B2, “Enhanced melanoma cancer prevention by novel melanotropins” (ARIZONA BOARD OF REGENTS ON BEHALF OF THE UNIVERSITY OF …, priority 2015, dated 2019).
Like-named read-outs stand apart in the source and are kept apart here.

How the values were obtained:
hMC4R [1] = target: T1, hMC4R (Homo sapiens, UniProt P32245); assay: Competition binding assay with [125I]-NDP-α-MSH, whole HEK293 cells expressing hMC4R; parameters: expressed in transfected cells; host or cells: HEK293; conditions: for MC4R % BE (Percent Binding Efficiency): maximal % of 125I-NDP-α-MSH displacement observed at 10 μM
Method: (§1) Competition binding experiments were carried out using both of cloned cell line and melanoma cells (A375, ATCC). The whole HEK293 cells were stably expressing human MC1, MC3, MC4, and MC5 receptors. HEK293 cells transfected with hMCRs were seeded on 96-well plates 48 hours before assay (50,000 cells/well). For the assay, the cell culture medium was aspirated and the cells were washed once with a freshly prepared minimum essencial medium (MEM) buffer containing 100% minimum essential medium with Earle's salt (MEM, GIBCO), and 25 mM sodium bicarbonate. […] The assay medium was subsequently removed, the cells were washed once with basic medium, and then lysed by the addition of 100 μL of 0.1M NaOH and 100 μL of 1% Triton X-100.
(§2) IC50 values represent the mean of two experiments performed in triplicate. IC50 and EC50 estimates and their associated standard errors were determined by fitting the data using a nonlinear least squares analysis, with the help of GraphPad Prism 5 (GraphPad Software, San Diego, Calif.).

hMC3R [2] = target: T2, hMC3R (Homo sapiens, UniProt P41968); assay: Competition binding assay with [125I]-NDP-α-MSH, whole HEK293 cells expressing hMC3R; parameters: expressed in transfected cells; host or cells: HEK293; conditions: for MC3R % BE (Percent Binding Efficiency): maximal % of 125I-NDP-α-MSH displacement observed at 10 μM
Method: as §1, §2

hMC5R [3] = target: T3, hMC5R (Homo sapiens, UniProt P33032); assay: Competition binding assay with [125I]-NDP-α-MSH, whole HEK293 cells expressing hMC5R; parameters: expressed in transfected cells; host or cells: HEK293; conditions: for MC5R % BE (Percent Binding Efficiency): maximal % of 125I-NDP-α-MSH displacement observed at 10 μM
Method: as §1, §2

hMC4R [4] = target: T1, hMC4R; assay: cAMP assay (intracellular cAMP accumulation) at hMC4R; type: cell-based; parameters: expressed in transfected cells; conditions: Table 2; for Emax: cAMP activity, read-out: hMC4R % max effect
Method: (§3) IC50 and EC50 estimates and their associated standard errors were determined by fitting the data using a nonlinear least squares analysis, with the help of GraphPad Prism 5 (GraphPad Software, San Diego, Calif.).

hMC3R [5] = target: T2, hMC3R; assay: cAMP assay (intracellular cAMP accumulation) at hMC3R; type: cell-based; parameters: expressed in transfected cells; conditions: Table 2; for EC50: 50% maximal intracellular cAMP accumulation (N = 4), tested 10^-10 to 10^-5 M
Method: as §3

hMC5R [6] = target: T3, hMC5R; assay: cAMP assay (intracellular cAMP accumulation) at hMC5R; type: cell-based; parameters: expressed in transfected cells; conditions: Table 2; for Emax: cAMP activity, read-out: hMC5R % max effect
Method: as §3

hMC1R [7] = target: T4, hMC1R (Homo sapiens, UniProt Q01726); assay: Competition binding assay with [125I]-NDP-α-MSH, whole HEK293 cells expressing hMC1R; conditions: for IC50 / MC1R % BE (Percent Binding Efficiency): Table 4; for IC50: 50% specific binding (N = 4), NB = 0% of 125I-NDP-α-MSH displacement observed at 10 μM, read-out: MC1R IC50; for MC1R % BE (Percent Binding Efficiency): maximal % of 125I-NDP-α-MSH displacement observed at 10 μM; for selectivity towards hMC1R (binding, versus hMC3R, hMC4R, hMC5R): statement in words, refers to Table 4
T4 construct: expressed in transfected cells; host or cells: HEK293
Method: as §1, §2

hMC1R [8] = target: T4, hMC1R; assay: cAMP assay (intracellular cAMP accumulation) at hMC1R; type: cell-based; conditions: Table 2; cAMP activity; read-out: hMC1R % max effect
Method: as §3

in vitro = in vitro ADME
[9] = Table 4, 50% specific binding (N = 4), NB = 0% of 125I-NDP-α-MSH displacement observed at 10 μM, read-out: MC4R IC50
[10] = Table 4, 50% specific binding (N = 4), NB = 0% of 125I-NDP-α-MSH displacement observed at 10 μM, read-out: MC3R IC50
[11] = Table 4, 50% specific binding (N = 4), NB = 0% of 125I-NDP-α-MSH displacement observed at 10 μM, read-out: MC5R IC50
[12] = 50% maximal intracellular cAMP accumulation (N = 4), tested 10^-10 to 10^-5 M
[13] = Table 2, concentration of peptide at 50% specific binding (N = 4), tested 10^-10 to 10^-5 M, read-out: hMC3R IC50
[14] = Table 2, concentration of peptide at 50% specific binding (N = 4), tested 10^-10 to 10^-5 M, read-out: hMC5R IC50

T1 sequence (P32245 whole entry): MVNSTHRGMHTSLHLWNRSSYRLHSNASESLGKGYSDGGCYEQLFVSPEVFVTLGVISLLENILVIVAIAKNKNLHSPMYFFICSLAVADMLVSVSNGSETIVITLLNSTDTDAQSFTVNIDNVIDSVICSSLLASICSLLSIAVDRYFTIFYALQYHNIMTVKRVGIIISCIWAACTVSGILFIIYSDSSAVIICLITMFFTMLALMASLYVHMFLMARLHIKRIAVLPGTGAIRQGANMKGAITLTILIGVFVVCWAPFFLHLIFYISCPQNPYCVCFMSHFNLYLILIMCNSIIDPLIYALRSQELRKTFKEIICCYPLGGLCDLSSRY
T4 sequence (Q01726 whole entry): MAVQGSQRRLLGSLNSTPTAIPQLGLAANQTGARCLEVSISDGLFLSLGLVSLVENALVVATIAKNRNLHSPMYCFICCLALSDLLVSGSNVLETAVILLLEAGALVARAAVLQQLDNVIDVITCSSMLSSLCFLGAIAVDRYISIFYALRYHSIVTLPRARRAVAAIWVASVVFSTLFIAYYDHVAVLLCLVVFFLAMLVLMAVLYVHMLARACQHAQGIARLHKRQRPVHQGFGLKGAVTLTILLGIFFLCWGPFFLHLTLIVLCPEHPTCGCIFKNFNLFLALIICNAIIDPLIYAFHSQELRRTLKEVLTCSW
T3 sequence (P33032 whole entry): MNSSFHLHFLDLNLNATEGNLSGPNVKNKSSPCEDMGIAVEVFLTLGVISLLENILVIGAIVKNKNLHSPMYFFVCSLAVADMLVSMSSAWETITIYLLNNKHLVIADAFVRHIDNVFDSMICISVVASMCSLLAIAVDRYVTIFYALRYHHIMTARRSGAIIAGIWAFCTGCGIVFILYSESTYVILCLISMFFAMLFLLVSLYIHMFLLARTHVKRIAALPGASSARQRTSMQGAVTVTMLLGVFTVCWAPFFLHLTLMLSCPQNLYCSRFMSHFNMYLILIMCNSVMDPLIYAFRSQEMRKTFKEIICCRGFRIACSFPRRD
T2 sequence (P41968 whole entry): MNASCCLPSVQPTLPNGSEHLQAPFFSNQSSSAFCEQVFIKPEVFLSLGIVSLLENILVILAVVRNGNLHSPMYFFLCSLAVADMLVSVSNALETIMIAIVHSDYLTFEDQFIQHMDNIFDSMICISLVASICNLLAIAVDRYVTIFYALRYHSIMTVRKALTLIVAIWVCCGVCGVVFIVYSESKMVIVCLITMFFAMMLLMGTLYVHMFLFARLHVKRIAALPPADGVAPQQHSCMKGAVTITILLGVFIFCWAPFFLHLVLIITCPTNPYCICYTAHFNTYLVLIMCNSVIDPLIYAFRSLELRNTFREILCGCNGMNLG

Q: Which IC50 (hMC4R [1]; [9]) does the source give for H-YVLGPFRWDRFG-NH2 [SEQ ID NO. 2] here?
A: 76 nM

Q: What about the “MC4R % BE (Percent Binding Efficiency)” value (hMC4R [1]; Table 4) of the same compound?
A: 100%

Q: And the IC50 (hMC3R [2]; [10])?
A: 165 nM

Q: And the “MC3R % BE (Percent Binding Efficiency)” value (hMC3R [2]; Table 4)?
A: 100%

Q: What about the IC50 (hMC5R [3]; [11]) of the same compound?
A: 67 nM

Q: And the “MC5R % BE (Percent Binding Efficiency)” value (hMC5R [3]; Table 4)?
A: 100%

Q: With CCCC[C@H](NC(=O)[C@@H](NC(=O)[C@H](Cc1ccc(O)cc1)NC(C)=O)C(C)C)C(=O)NCC(=O)N[C@@H](Cc1c[nH]cn1)C(=O)N[C@H](Cc1ccccc1)C(=O)N[C@@H](CCCNC(=N)N)C(=O)N[C@@H](Cc1c[nH]c2ccccc12)C(=O)N[C@@H](CC(=O)O)C(=O)N[C@@H](CCCNC(=N)N)C(=O)N[C@@H](Cc1ccccc1)C(=O)NCC(N)=O [SEQ ID NO. 12, Ac-Tyr-Val-Nle-Gly-His-D-Phe-Arg-Trp-Asp-Arg-Phe-Gly-NH2, reference compound] as the compound, how does the Emax (hMC4R [4]) read?
A: 100%

Q: For H-YVMGPFRWDRFG-NH2 [SEQ ID NO. 10], which EC50 (hMC3R [5]) is on record?
A: 0.33 ± 0.01 nM

Q: And the EC50 (hMC5R [6]; [12])?
A: 82 ± 10 nM

Q: What about the Emax (hMC5R [6]) of the same compound?
A: 97%

Q: And the IC50 (hMC4R [1]; Table 2, concentration of peptide at 50% specific binding (N = 4), tested 10^-10 to 10^-5 M, read-out: hMC4R IC50)?
A: 600 ± 70 nM

Q: What about the EC50 (hMC4R [4]; [12]) of the same compound?
A: 100 ± 11 nM

Q: What about the Emax (hMC4R [4]) of the same compound?
A: 99%

Q: And the IC50 (hMC3R [2]; [13])?
A: 6.7 ± 1 nM

Q: And the IC50 (hMC5R [3]; [14])?
A: 340 ± 40 nM

Q: Which results are given for CC(C)C[C@H](NC(=O)[C@@H](NC(=O)[C@@H](N)Cc1ccc(O)cc1)C(C)C)C(=O)NCC(=O)N[C@@H](Cc1c[nH]cn1)C(=O)N[C@@H](Cc1ccccc1)C(=O)N[C@@H](CCCNC(=N)N)C(=O)N[C@@H](Cc1c[nH]c2ccccc12)C(=O)N[C@@H](CC(=O)O)C(=O)N[C@@H](CCCNC(=N)N)C(=O)N[C@@H](Cc1ccccc1)C(=O)NCC(N)=O [SEQ ID NO. 9]?
A: IC50 (hMC1R [7]): 198 nM; IC50 (hMC4R [1]; [9]): 1020 nM; MC4R % BE (Percent Binding Efficiency) (hMC4R [1]; Table 4): 100%; IC50 (hMC3R [2]; [10]): 1620 nM; MC3R % BE (Percent Binding Efficiency) (hMC3R [2]; Table 4): 53%; IC50 (hMC5R [3]; [11]): > 10000 nM; MC5R % BE (Percent Binding Efficiency) (hMC5R [3]; Table 4): 60%

Q: With “H-YVLGHFLWDRFG-NH2 [SEQ ID NO. 4] [listing 1 of 2 here]” as the compound, how does the IC50 (hMC1R [7]) read?
A: 1480 nM

Q: And the IC50 (hMC4R [1]; [9])?
A: > 10000 nM

Q: What about the IC50 (hMC3R [2]; [10]) of the same compound?
A: 1880 nM

Q: And the IC50 (hMC5R [3]; [11])?
A: 7.3 nM

Q: Which results are given for H-YVLGPFLWDRFG-NH2 [SEQ ID NO. 6]?
A: IC50 (hMC4R [1]; [9]): 13 nM; MC4R % BE (Percent Binding Efficiency) (hMC4R [1]; Table 4): 29%; IC50 (hMC3R [2]; [10]): 40 nM; MC3R % BE (Percent Binding Efficiency) (hMC3R [2]; Table 4): 32%; IC50 (hMC5R [3]; [11]): 1.7 nM; MC5R % BE (Percent Binding Efficiency) (hMC5R [3]; Table 4): 32%

Q: Which “MC1R % BE (Percent Binding Efficiency)” value (hMC1R [7]) does the source give for “H-YVLGHFLWDRFG-NH2 [SEQ ID NO. 4] [listing 2 of 2 here]” here?
A: 100%

Q: What about the “MC4R % BE (Percent Binding Efficiency)” value (hMC4R [1]; Table 4) of the same compound?
A: 47%

Q: And the “MC3R % BE (Percent Binding Efficiency)” value (hMC3R [2]; Table 4)?
A: 26%

Q: And the “MC5R % BE (Percent Binding Efficiency)” value (hMC5R [3]; Table 4)?
A: 57%

Q: What does the source list for H-YVLGPFLFDRFG-NH2 [SEQ ID NO. 7]?
A: IC50 (hMC1R [7]): 11 nM; MC1R % BE (Percent Binding Efficiency) (hMC1R [7]): 32%; IC50 (hMC4R [1]; [9]): 58 nM; MC4R % BE (Percent Binding Efficiency) (hMC4R [1]; Table 4): 36%; IC50 (hMC3R [2]; [10]): 1400 nM; MC3R % BE (Percent Binding Efficiency) (hMC3R [2]; Table 4): 47%; IC50 (hMC5R [3]; [11]): 5.3 nM; MC5R % BE (Percent Binding Efficiency) (hMC5R [3]; Table 4): 34%

Q: Which IC50 (hMC1R [7]) does the source give for “H-YVLGHFLFDRFG-NH2 [SEQ ID NO. 5] [listing 1 of 2 here]” here?
A: 22 nM

Q: What about the IC50 (hMC4R [1]; [9]) of the same compound?
A: 3210 nM

Q: And the IC50 (hMC3R [2]; [10])?
A: > 10000 nM

Q: Which “MC1R % BE (Percent Binding Efficiency)” value (hMC1R [7]) does the source give for “H-YVLGHFLFDRFG-NH2 [SEQ ID NO. 5] [listing 2 of 2 here]” here?
A: 100%

Q: And the “selectivity towards hMC1R (binding, versus hMC3R, hMC4R, hMC5R)” value (hMC1R [7])?
A: highly selective for MC1R

Q: And the “selectivity towards hMC1R (binding, versus hMC3R, hMC4R, hMC5R)” value (hMC1R [7]; listed as Peptide 5)?
A: significant selectivity towards hMC1R

Q: And the “MC4R % BE (Percent Binding Efficiency)” value (hMC4R [1]; Table 4)?
A: 58%

Q: And the “MC3R % BE (Percent Binding Efficiency)” value (hMC3R [2]; Table 4)?
A: 45%

Q: What about the “MC5R % BE (Percent Binding Efficiency)” value (hMC5R [3]; Table 4) of the same compound?
A: 0%

Q: Which EC50 (hMC3R [5]) does the source give for CCCC[C@H](NC(=O)[C@@H](NC(=O)[C@@H](N)Cc1ccc(O)cc1)C(C)C)C(=O)NCC(=O)N[C@@H](Cc1cnc[nH]1)C(=O)N[C@H](Cc1ccc2ccccc2c1)C(=O)N[C@@H](CCCN=C(N)N)C(=O)N[C@H](Cc1c[nH]c2ccccc12)C(=O)N[C@@H](CC(=O)O)C(=O)N[C@@H](CCCN=C(N)N)C(=O)N[C@@H](Cc1ccccc1)C(=O)NCC(N)=O [SEQ ID NO. 11, H-Tyr-Val-Nle-Gly-His-D-Nal(2′)-Arg-D-Trp-Asp-Arg-Phe-Gly-NH2] here?
A: 300 ± 6 nM

Q: And the Emax (hMC3R [5]; cAMP activity, read-out: hMC3R % max effect)?
A: 6%

Q: And the Emax (hMC1R [8])?
A: 70%

Q: And the Emax (hMC5R [6])?
A: 6%

Q: What about the IC50 (hMC3R [2]; [13]) of the same compound?
A: 5 ± 0.6 nM

Q: And the IC50 (hMC5R [3]; [14])?
A: 3.5 ± 0.5 nM

Q: And the half-life (in vitro)?
A: 52 min

Q: Which results are given for H-YVLGPFRFDRFG-NH2 [SEQ ID NO. 3]?
A: MC1R % BE (Percent Binding Efficiency) (hMC1R [7]): 0%; MC4R % BE (Percent Binding Efficiency) (hMC4R [1]; Table 4): 0%; IC50 (hMC3R [2]; [10]): 1250 nM; MC3R % BE (Percent Binding Efficiency) (hMC3R [2]; Table 4): 33%; MC5R % BE (Percent Binding Efficiency) (hMC5R [3]; Table 4): 0%
